Reference: patent US7615380B2, “Methods for modulating an immune response by modulating KRC activity” (President and Fellows of Harvard College, priority 2001, dated 2009)

Legend:
NFκB = NFκB luciferase reporter transfection assay in 293T cells; assay type: cell-based, human
Method: FIGS. 2(A)-2(C) depicts KRC preventing TRAF-dependent NFkB activation. Inhibition of TRAF2 (FIG. 2(A)), TRAF5 (FIG. 2(B)) and TRAF6 (FIG. 2(C)) mediated activation of NFkB by ectopically expressed KRC. 293 T cells (3×10^5 ) were transfected with 25 ng of NFkB luciferase reporter plasmid, 50 ng of CMVβGal and 1 μg of each indicated plasmid and 24 hours post transfection cells were harvested. Data from at least five experiments normalized for β galactosidase activity are shown. Vec refers to the empty MYC vector without the addition of TRAFs.
293 T cells (3×10^5 ) were transfected with 25 ng of NFκB luciferase reporter plasmid, 50 ng of CMVβGal and 1 μg of each indicated plasmid and 24 hours post transfection cells were stimulated for 4 hours with 10 ng/ml of TNFα. (A) KRC and KRC tr (B) dominant negative and antisense KRC (C) antisense KRC in the presence of exogenous TRAF2. Data from at least five experiments normalized for β galactosidase activity are shown.
HEK293 cells ([…] per well) were seeded in 6 well plates, and 12 h later cells were transfected with EFECTENE™ (Qiagen) with 25 ng of a 2XNFκB-luciferase (Luc) reporter gene plasmid and 0.5 μg of the indicated TRAF and KRC expression vectors. Total amounts of transfected DNA were kept constant by supplementing with control empty expression vector plasmids as needed. Cell extracts were prepared 24 h after transfection, and reporter gene activity was determined via the luciferase assay system (PROMEGA). PRSV-βGal vector (50 ng) was used to normalize for transfection efficiency by measuring β galactosidase activity using the Galacton-PLUS substrate system (TROPIX, Inc.). Whenever indicated, the cells were treated for 4 hours with TNFα or IL-1 (10 ng/ml). To generate stable transfectants, EFECTENE™ mediated transfection of the RAW cell line was performed and clones were selected and maintained in complete medium supplemented with G418 (2 mg/ml).

NIH 3T3 cells = test: β-galactosidase cotransfection apoptosis assay in 3T3 cells; assay type: cell-based; settings: TNFα 20 ng/ml
Method: 3T3 cells were cotransfected with CMV lacZ vector (300 ng per plate) and either empty expression vector or the expression vectors indicated (2 μg of each). Half of the transfected cultured cells were treated with TNFα (20 ng/ml) at 12 hours after the transfection and the other half left untreated. All the cells were fixed and stained at 36 hours after the transfection. The number of blue cells in each transfection was determined by counting six different fields. A representative experiment of three performed is presented.
β-galactosidase cotransfection assays for determination of cell death were performed as described (Hsu, et al.). Transfected NIH 3T3 cells were washed with PBS, fixed in PBS containing 3% paraformaldehyde for 10 min at 4° C., and washed with PBS. Fixed cells were stained overnight with XGal. The number of blue-stained cells was determined microscopically. The average number from one representative experiment of three is shown.

AP-1 = AP-1 luciferase/GFP reporter in 293T cells; assay type: cell-based, human
Method: FIG. 21(A) 293T cells were transfected with c-Jun and myc-KRCtr. 48 hours later, lysates were immunoprecipitated with anti-Myc antibody. Immunoprecipitates were probed by western blotting with anti-c-Jun antibody. FIG. 21(B) (left panel) 293T cells were cotransfected with c-Jun and full length His-KRC. 48 hours later, lysates were immunoprecipitated with anti-His antibody (DE8 Omniprobe) and precipitates were probed by western blotting with anti-c-Jun antibody. (right panel) In vitro translated and S35-labelled c-Jun and His-KRCtr were mixed and immunoprecipitated with anti-His antibody. Recovered c-Jun protein was visualized by autoradiography. FIG. 21(C) Jurkat or EL4 T cells were stimulated with PMA plus ionomycin for 45 minutes. Lysates were immunoprecipitated with anti-c-Jun antibody, and immunoprecipitates were probed with specific anti-KRC rabbit antisera. […] 24 hours later, Luciferase activity was determined as above. […] 24 hours later, luciferase activity was determined as above. […]
To examine the functional consequences of AP-1 degradation by KRC, cotransfection experiments in 293T cells with sense or antisense KRC together with a luciferase-tagged AP-1 reporter construct were performed. […] Conversely, cotransfection of antisense KRC increased AP-1 transactivation as evidenced by an increased number of GFP+ cells as well as an increase in the intensity of fluorescence per cell in. […]

F-actin = F-actin immunofluorescence in Jurkat T cells; assay type: cell-based, human
Method: Immunofluorescence of F-actin upon KRC overexpression in Jurkat T cells was performed.

Substance: KRC: full-length KRC zinc finger protein (SEQ ID NO:2) overexpressed from an expression vector
- NFκB activation induced by TRAF5 and TRAF6 (NFκB; 293T cells): substantially but not completely affected
- NFkB-dependent transactivation (NFκB; 293T cells, absence of exogenous TRAFs): blocked NFkB-dependent transactivation
- TRAF2-induced NFκB activation (NFκB; 293T cells, exogenous TRAF2): blocked TRAF2-induced NFκB activation
- TNFα-induced NFκB activation (NFκB; 293 cells, 10 ng/ml TNFα 4 hours): strongly inhibited TNFα-induced NFκB activation
- TNFα-induced apoptosis (TNF mediated cytotoxicity) (NIH 3T3 cells): increase in TNF mediated cytotoxicity
- c-Jun and c-Jun plus c-Fos AP-1 activity enhancement (AP-1; AP-1 luciferase reporter): approximately 5 fold
- AP-1 activity (luciferase-tagged AP-1 reporter) (AP-1; sense or antisense KRC cotransfection): decreased stimulation of AP-1 activity
- actin polymerization (F-actin) (F-actin): reorganization of F-actin filaments
